From publication PMC10630888, “Nuclear ERK1/2 signaling potentiation enhances neuroprotection and cognition via Importinα1/KPNA2” (EMBO Molecular Medicine, 2023)

Key:
[1] = tested on: corticostriatal synapses on dSPNs; experiment: Patch clamp, HFS-LTD at corticostriatal synapses on dSPNs; type: cell-based, mouse; conditions: peptide 50 μM intracellularly, mean, RB5 n = 7 cells, Scr n = 5 cells
Experimental: Brain slices containing both the striatum and the cortex were prepared as described (Trusel et al, [2015]). Mice were anesthetized by isoflurane and decapitated, and their brains were rapidly transferred to ice‐cold dissecting aCSF containing (in mM): 110 Choline‐Cl, 2.5 KCl, 1.25 NaH2PO4, 7 MgCl26H2O, 0.5 CaCl2, 25 NaHCO3, 25 D‐glucose, 11.6 ascorbic acid, saturated with 95% O2 and 5% CO2. Horizontal corticostriatal slices (270 μm thick; patch‐clamp recordings) were cut in the dissecting aCSF using a Vibratome 1000S slicer (Leica, Italy), then transferred to normal aCSF containing (in mM): 115 NaCl, 3.5 KCl, 1.2 NaH2PO4, 1.3 MgCl26H2O, 2 CaCl2, 25 NaHCO3, and 25 D‐glucose and aerated with 95% O2 and 5% CO2. Following 20 min of incubation at 32°C, slices were kept at RT. During experiments, slices were continuously perfused with aCFS at a rate of 2 ml/min at 28°C. […]
SPNs were clamped at a holding membrane potential of −80 mV. […] Series resistance (range 15–25 MW) was monitored at regular intervals throughout the recording and presented minimal variations (≤20%) in the analyzed cells. […]
The occurrence and magnitude of synaptic plasticity was evaluated by comparing the normalized EPSP amplitudes from the last 5 min of baseline recordings with the corresponding values at 20–30 min after HFS (HFS‐LTD). […]

[2] = tested on: ERK phosphorylation (pERK); experiment: pERK dose-response in acute striatal slices (ex vivo); type: cell-based, mouse; conditions: fresh acute striatal slices from adult mice, RB5 0.5–100 μM, 1 h at 32°C; GraphPad Prism; n = 8–12 slices per group; read-out: EC50 of pERK enhancement (ERK activation)
Experimental: Adult C57Bl/6 mice were decapitated after cervical dislocation and brain slices were freshly prepared as previously described in Orellana et al ([2012]) and Papale et al ([2016]). Briefly, the brains were rapidly removed from the skull, submerged in ice‐cold sucrose‐based dissecting solution, and sliced into 200 μm‐thick slices using a vibratome. […] After a rapid fixation in 4% PFA, slices were rinsed and cryoprotected overnight at 4°C in 30% sucrose solution. On the following day, slices were cut into 18 μm‐thick slices using a cryostat (Leica CM1850), mounted onto SuperFrost Plus slides (Thermo Scientific) and stored at −20°C until processing for immunohistochemistry or immunofluorescence.
Immunohistochemistry was performed as described in Papale et al ([2016]). […]
For ex‐vivo immunohistochemistry experiments, images were acquired from the dorsal striatum using a bright‐field microscope (Macro/Micro Imaging System, Leica) under a 40× magnification. Neuronal quantification was performed with ImageJ software by counting the number of phospho‐ERK positive cells in two sections for each sample in three fields per section. […] The EC50 for pERK was calculated using GraphPad Prism software.

“SCR: ineffective Scramble version of RB5 containing a TAT sequence (GRKKRRQRRRPPRVGPGVPEGVGVAVFGVKEPGQTGDVGPVGE) [reference compound]” was tested, and the “Normalized EPSP amplitude after HFS (20–30 min) versus baseline” value ([1]; listed as Scr) was 76.7653 and the “Normalized EPSP amplitude after HFS (20–30 min) versus baseline” value ([1]; listed as control peptide) was “had no effect on plasticity induction”.

“GRKKRRQRRRPPQGGGGGEPRRTEGVGPGVPGEVEMVKGQPFDV [RB5, six D-amino acids, acetylated N-terminus]” gave an EC50 [2] of 3.4 µM.
